Assay results reported in patent publication EP4725508A1, “LIGAND-DRUG CONJUGATE HAVING FREE PAYLOAD RECOVERY UNIT” (RemeGen Co., Ltd., priority 2024, dated 2025).
Where two headings read alike, the source gives them in different places. Square brackets hold non-standard residues; d marks the D form. Peptide text beside a SMILES is read from it. * marks the point of attachment. Dolaproine = CO[C@@H]([C@@H]1CCCN1)[C@@H](C)C(=O)O; Dil = CC[C@H](C)[C@H](NC)[C@@H](CC(=O)O)OC; X1 = C[C@@H](N*)[C@@H](O)c1ccccc1; NMeV = CN[C@H](C(=O)O)C(C)C

Key:
chimeric antibody No. 93 = assay: Biacore determination, binding affinity with free MMAE; parameters: species or system mouse; details: antibody immobilized with ProA probe; free MMAE 50-1.85 nM
Experimental: (§1) Antibody immobilization: 20 µg/mL of antibody was immobilized onto the chip surface using a ProA probe; Binding: Antigen MMAE concentrations were 50, 16.7, 5.5, 1.85, and 0 nM. The flow rate was set at 30 µL/min, and the contact time was 600 s; Dissociation: The chip was washed with HEPES buffer for 300 s. Regeneration: Regeneration was performed with 10 mM Glycine-HCl.

chimeric antibody No. 89 = assay: as above; parameters: species or system mouse; details: antibody immobilized with ProA probe; free MMAE 50-1.85 nM
Experimental: as §1

chimeric antibody No. 1 = assay: as above; parameters: species or system mouse; details: antibody immobilized with ProA probe; free MMAE 50-1.85 nM
Experimental: as §1

chimeric antibody No. 69 = assay: as above; parameters: species or system mouse; details: antibody immobilized with ProA probe; free MMAE 50-1.85 nM
Experimental: as §1

[1] = molecular target: chimeric antibody No. 62 (VH SEQ ID NO: 1, VL SEQ ID NO: 5); assay: as above; parameters: species or system mouse; details: antibody immobilized with ProA probe; free MMAE 50-1.85 nM
Experimental: as §1

chimeric antibody No. 92 = assay: as above; parameters: species or system mouse; details: antibody immobilized with ProA probe; free MMAE 50-1.85 nM
Experimental: as §1

chimeric antibody No. 44 = assay: as above; parameters: species or system mouse; details: antibody immobilized with ProA probe; free MMAE 50-1.85 nM
Experimental: as §1

chimeric antibody No. 74 = assay: as above; parameters: species or system mouse; details: antibody immobilized with ProA probe; free MMAE 50-1.85 nM
Experimental: as §1

CHOK1 [2] = assay: Cell killing activity; format: cell-based
OVCAR3 [3] = assay: Cell killing activity; format: cell-based
[4] = molecular target: humanized antibody ABC3320 (Heavy chain: SEQ ID NO: 163; Light chain: SEQ ID NO: 164); assay: Biacore determination, binding affinity with free MMAE; details: antibody immobilized with ProA probe; free MMAE 50-1.85 nM
Experimental: as §1

[5] = test system: chimeric antibody No. 62 (VH SEQ ID NO: 1, VL SEQ ID NO: 5); assay: Blocking experiment (ELISA, OVA-MMAF coated); format: binding, mouse; details: MMAE+antibody; OVA-MMAF coated 200 ng/mL; antibody 100 ng/mL
Experimental: (§2) Blocking Experiment: OVA-MMAF was coated onto ELISA plates at a concentration of 200 ng/mL and incubated at 37°C for 1 h. The plates were blocked with 5% skim milk and incubated at 37°C for 2 h. The antibody was diluted to a final concentration of 100 ng/mL. MMAE and MMAE-Linker were diluted at concentrations of 600, 200, 66.67, 22.22, 7.41, 2.47, 0.82, 0.27, 0.09, 0.03, and 0.01 nM. 50 µL MMAE + 50 µL chimeric antibody and 50 µL MMAE-Linker + 50 µL chimeric antibody were added respectively to the ELISA plates. The total volume per well was 100 µL. The plates were incubated at 37°C for 1 h. Goat Anti-Human IgG H&L (HRP) (abcam, ab6858) diluted at 1:5000 was added, incubated at 37°C for 1 h, and then subjected to TMB color development. The OD value was determined at 450 nm.

[6] = test system: chimeric antibody No. 64 (VH SEQ ID NO: 8, VL SEQ ID NO: 12); assay: Blocking experiment (ELISA, OVA-MMAF coated); format: binding, mouse; details: MMAE+antibody; OVA-MMAF coated 200 ng/mL; antibody 100 ng/mL
Experimental: as §2

[7] = test system: chimeric antibody No. 132 (VH SEQ ID NO: 39, VL SEQ ID NO: 43); assay: Blocking experiment (ELISA, OVA-MMAF coated); format: binding, mouse; details: MMAE+antibody; OVA-MMAF coated 200 ng/mL; antibody 100 ng/mL
Experimental: as §2
(§3) Blocking Experiment: The experimental steps were the same as the above blocking experiment.

[8] = test system: chimeric antibody No. 93 (VH SEQ ID NO: 35, VL SEQ ID NO: 38); assay: Blocking experiment (ELISA, OVA-MMAF coated); format: binding, mouse; details: MMAE+antibody; OVA-MMAF coated 200 ng/mL; antibody 100 ng/mL
Experimental: as §2, §3

[9] = test system: chimeric antibody No. J4 (VH SEQ ID NO: 21, VL SEQ ID NO: 25); assay: Blocking experiment (ELISA, OVA-MMAF coated); format: binding, mouse; details: MMAE+antibody; OVA-MMAF coated 200 ng/mL; antibody 100 ng/mL
Experimental: as §2, §3

[10] = test system: chimeric antibody No. 133 (VH SEQ ID NO: 46, VL SEQ ID NO: 49); assay: Blocking experiment (ELISA, OVA-MMAF coated); format: binding, mouse; details: MMAE+antibody; OVA-MMAF coated 200 ng/mL; antibody 100 ng/mL
Experimental: as §2, §3

[11] = test system: chimeric antibody No. 92 (VH SEQ ID NO: 28, VL SEQ ID NO: 32); assay: Blocking experiment (ELISA, OVA-MMAF coated); format: binding, mouse; details: MMAE+antibody; OVA-MMAF coated 200 ng/mL; antibody 100 ng/mL
Experimental: as §2, §3

HCC1954 [12] = assay: Cell killing activity; format: cell-based
[13] = test system: humanized antibody ABC3320 (Heavy chain: SEQ ID NO: 163; Light chain: SEQ ID NO: 164); assay: Blocking experiment (ELISA, OVA-MMAF coated); format: binding; details: MMAE+ antibody; OVA-MMAF coated 200 ng/mL; antibody 100 ng/mL; control in Tables 6, 8, 10, 12
Experimental: as §2, §3

CHOK1 [14] = assay: Cell killing activity; format: cell-based; remark: listed apart in the source
[15] = Comparative study of toxicity in BALB/c mice; format: in vivo
Experimental: (§4) Test 1: 18 BALB/c mice, female, with body weights of 16 to 19 g at the time of grouping, were divided into a PR-ADC group (CDCP1A9-DL01-MMAE, 140 mg/kg) and a conventional ADC group (CDCP1A6-DL01-MMAE, 100 mg/kg), both at equimolar doses, with 9 mice in each group (5 for toxicology + 4 for toxicokinetic (TK)), for a total of 2 groups. A single dose was administered, with a dosing volume of 10 mL/kg. The drug-related toxic effects in BALB/c mice for each group were investigated and compared through aspects such as death, clinical observation, body weight, and toxicokinetic detection. The experiment lasted for 14 days.
(§5) Test 2: 16 BALB/c mice, female, with body weights of 16 to 20 g at the time of grouping, were divided into PR-ADC group (CDCP1A12-DL01-MMAE, 134 mg/kg) and conventional ADC group (CDCP1A6-DL01-MMAE, 100 mg/kg) dose group, both at equimolar doses, with 8 mice in each group (4 for toxicology + 4 for TK), for a total of 2 groups. A single dose was administered, with a dosing volume of 10 mL/kg. The drug-related toxic effects in BALB/c mice for each group were investigated and compared through aspects such as death, clinical observation, body weight, and toxicokinetic detection. The experiment lasted for 14 days.
(§6) 18 BALB/c mice, female, with body weights of 16 to 19 g at the time of grouping, were divided into a PR-ADC group (Nectin4A14-DL01-MMAE, 136 mg/kg) and a conventional ADC group (EV, 100 mg/kg), both at equimolar doses, with 9 mice in each group (5 for toxicology + 4 for TK), for a total of 2 groups.

HCC1954 [16] = assay: Cell killing activity; format: cell-based; remark: listed apart in the source
OVCAR3 [17] = assay: Cell killing activity; format: cell-based; remark: listed apart in the source
[18] = Toxicokinetics of free MMAE in serum (Hybrid LBA LC-MS/MS); format: in vivo; details: BALB/c mice, Nectin4A14-DL01-MMAE 136 mg/kg vs EV 100 mg/kg
Experimental: as §4
Free MMAE was determined using a Hybrid LBA LC-MS/MS method. Protein A/G-Beads were used to separate the ADC/PR-ADC, MMAE-bound PR-ADC, and MMAE-bound anti-MMAE antibodies from the serum. The remaining samples were subjected to protein precipitation and then tested for free MMAE using the LC-MS/MS method. Table 34. Toxicity test results of animals in each group
as §5
Free MMAE was also determined using the Hybrid LBALC-MS/MS method. Table 36. Toxicity test results of animals in each group
as §6
Free MMAE was also determined using the Hybrid LBA LC-MS/MS method. Table 38. […]

[19] = test system: human bladder cancer cell HT-1376 subcutaneous xenograft; assay: Efficacy in subcutaneous xenograft model; format: in vivo, BALB/c-nu mice; details: equimolar doses
Experimental: Human bladder cancer cells HT-1376 were expanded and cultured, and then subcutaneously inoculated into the right forelimb axilla near the back of BALB/c-nu mice (GemPharmatech, female). Tumor growth was observed. When the tumor volume reached about 90 to 200 mm^3, the mice were randomized into groups based on tumor volume and administered with drugs.
The day of administration was designated as D0. During the experiment, tumor long diameter, short diameter, and body weight were measured twice a week, accompanied by observation of clinical symptoms. At the endpoint of the experiment, the experimental mice were euthanized.

Nectin-4 = molecular target: T1, Nectin-4 (Homo sapiens, UniProt Q96NY8); assay: Binding activity with Nectin-4
T1 sequence (Q96NY8 32-510): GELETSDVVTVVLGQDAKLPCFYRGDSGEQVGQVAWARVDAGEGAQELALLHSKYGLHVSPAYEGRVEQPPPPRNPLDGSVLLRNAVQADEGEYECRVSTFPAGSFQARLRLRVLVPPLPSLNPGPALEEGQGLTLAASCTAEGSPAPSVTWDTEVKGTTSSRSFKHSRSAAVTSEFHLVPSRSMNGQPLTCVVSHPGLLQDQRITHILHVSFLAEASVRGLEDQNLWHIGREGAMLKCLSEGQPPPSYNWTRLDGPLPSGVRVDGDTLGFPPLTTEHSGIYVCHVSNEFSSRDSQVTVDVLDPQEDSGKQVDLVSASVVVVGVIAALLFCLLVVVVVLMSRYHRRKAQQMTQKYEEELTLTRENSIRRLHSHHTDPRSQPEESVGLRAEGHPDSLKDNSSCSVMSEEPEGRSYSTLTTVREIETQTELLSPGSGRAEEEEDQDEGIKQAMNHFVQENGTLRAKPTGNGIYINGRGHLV

## CC[C@H](C)[C@@H]([C@@H](CC(=O)N1CCC[C@H]1[C@H](OC)[C@@H](C)C(=O)N[C@H](C)[C@@H](O)c1ccccc1)OC)N(C)C(=O)[C@@H](NC(=O)[C@@H](NC)C(C)C)C(C)C [MMAE, monomethyl auristatin E] (H-[NMeV]V[Dil][Dolaproine]-X1)
Chimeric antibody No. 93
  Kd: 2.81 nM
  ka: 85700 M⁻¹ s⁻¹
  kd: 0.000241 s⁻¹
Chimeric antibody No. 89
  Kd: 2.11 nM
  ka: 61600 M⁻¹ s⁻¹
  kd: 0.00013 s⁻¹
Chimeric antibody No. 1
  Kd: 1.78 nM
  ka: 53500 M⁻¹ s⁻¹
  kd: 9.52e-05 s⁻¹
Chimeric antibody No. 69
  Kd: 2.14 nM
  ka: 70200 M⁻¹ s⁻¹
  kd: 0.00015 s⁻¹
[1]
  Kd: 0.741 nM
  ka: 105000 M⁻¹ s⁻¹
  kd: 7.78e-05 s⁻¹
Chimeric antibody No. 92
  Kd: 2.66 nM
  ka: 67300 M⁻¹ s⁻¹
  kd: 0.000179 s⁻¹
Chimeric antibody No. 44
  Kd: 1.78 nM
  ka: 326000 M⁻¹ s⁻¹
  kd: 0.00058 s⁻¹
Chimeric antibody No. 74
  Kd: 2.14 nM
  ka: 84400 M⁻¹ s⁻¹
  kd: 0.00018 s⁻¹
CHOK1 [2]
  MIR (%): 83.94%
CHOK1 [2]; Cricetulus griseus, CHO-K1
  IC50: 34.9 nM
OVCAR3 [3]
  MIR (%): 3.69%
OVCAR3 [3]; Homo sapiens, OVCAR-3
  IC50: 0.31 nM
[4]
  Kd: 0.318 nM
  ka: 100000 M⁻¹ s⁻¹
  kd: 3.18e-05 s⁻¹
[5]
  IC50: 1.43 nM
[6]
  IC50: 4.76 nM
[7]
  IC50: 1.32 nM
[8]
  IC50: 54.7 nM
[9]
  IC50: 1.89 nM
[10]
  IC50: 1.59 nM
[11]
  IC50: 83.8 nM
HCC1954 [12]
  MIR (%): 60.95%
HCC1954 [12]; Homo sapiens
  IC50: 0.31 nM
[13]
  IC50: 1.37 nM

## Enfortumab vedotin [EV]
CHOK1 [14]
  MIR (%): 17.40%
[15]; Nectin4A14-DL01-MMAE 136 mg/kg vs EV 100 mg/kg
  Clinical Observation: Piloerection (4/4), Hunched posture (5/5), Squinting eyes (5/5), Lethargy (1/5)
[15]; Nectin4A14-DL01-MMAE 136 mg/kg vs EV 100 mg/kg (equimolar)
  Death: 2/9
[15]; Nectin4A14-DL01-MMAE 136 mg/kg vs EV 100 mg/kg, day in brackets in the cell
  Max Body Weight Change Rate: -24.4% (D7)
[15]; Nectin-4 comparison
  tolerance: less than 100 mg/kg
HCC1954 [16]
  IC50: 148 nM
  MIR (%): 70.90%
OVCAR3 [17]
  IC50: 33.3 nM
  MIR (%): 60.27%
[18]
  Free MMAE AUC: 9.09097 ± 0.65517 µM·h
  Free MMAE Cmax: 76.08 ± 4.88 nM
  Free MMAE Tmax: 24 h
[19]
  TGI: 71%
Nectin-4
  Top OD450: 1.23
